Experimental data published in paper PMC7587396, “New Zileuton-Hydroxycinnamic Acid Hybrids: Synthesis and Structure-Activity Relationship towards 5-Lipoxygenase Inhibition” (Molecules, 2020).
pIC50: −log10 of the molar value. Entries after “also recorded” stand apart in the source; their conditions may differ.

What was measured:
5-LO [1] = target: T1, 5-LO (Homo sapiens, UniProt P09917); assay: 5-LO product biosynthesis assay in stimulated HEK293 cells co-transfected with 5-LO and FLAP; type: cell-based; set-up: expressed in transfected cells; host or cells: HEK293 cells, stably co-transfected (pcDNA3.1 5-LO, pBUDCE4.1 FLAP); conditions: compounds at 1 µM; result in words, compared with zileuton (1) and SAPE (2) at 1 µM; A23187 + arachidonic acid stimulation
T1 sequence (P09917 1-674): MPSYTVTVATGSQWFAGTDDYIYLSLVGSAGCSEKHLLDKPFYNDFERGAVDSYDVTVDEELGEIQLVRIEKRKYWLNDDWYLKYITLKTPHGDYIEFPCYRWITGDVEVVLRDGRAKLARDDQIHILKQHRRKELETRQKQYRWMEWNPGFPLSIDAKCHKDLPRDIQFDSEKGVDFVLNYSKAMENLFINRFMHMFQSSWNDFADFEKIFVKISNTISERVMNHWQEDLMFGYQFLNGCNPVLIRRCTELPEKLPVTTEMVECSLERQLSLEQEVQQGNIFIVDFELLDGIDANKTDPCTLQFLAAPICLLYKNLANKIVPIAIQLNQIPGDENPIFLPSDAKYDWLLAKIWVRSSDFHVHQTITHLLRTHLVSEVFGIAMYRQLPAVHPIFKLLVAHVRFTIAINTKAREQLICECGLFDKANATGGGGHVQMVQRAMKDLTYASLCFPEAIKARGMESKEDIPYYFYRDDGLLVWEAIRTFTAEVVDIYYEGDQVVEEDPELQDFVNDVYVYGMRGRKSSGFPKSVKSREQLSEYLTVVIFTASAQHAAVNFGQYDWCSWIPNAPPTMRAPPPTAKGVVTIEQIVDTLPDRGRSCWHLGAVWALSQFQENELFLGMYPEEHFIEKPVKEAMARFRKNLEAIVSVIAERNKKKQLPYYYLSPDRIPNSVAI
Procedure: All compounds, including known inhibitors zileuton (1) and SAPE (2), were assayed at 1 µM (Figure 1) for inhibition of LTs biosynthesis in stimulated HEK293 cells. These cells are stably transfected with human 5-LO and serves as a highly reproducible model of 5-LO product biosynthesis in which compounds can be preliminarily screened for anti-LTs activity before moving on to more complex systems. […] Esterification of benzo[b]thiophene-2-carboxylic acid to obtain benzyl to phenbutyl analogs (4–7) had no effect on the inhibitory activity of 5-LO. […] Even the addition of a hydroxyl (8) or methoxy (9) at para-position of the phenethyl group has no effect on the activity.
HEK293 cells were stably co-transfected with a pcDNA3.1 vector expressing 5-LO and a pBUDCE4.1 vector expressing 5-LO activating protein (FLAP) as previously reported. This represents a controlled model for the evaluation of 5-LO inhibition in a cellular system. For cell stimulation of 5-LO products, transfected HEK293 cells were collected following trypsinization, washed and the cell pellet was resuspended in Hank’s balanced salt solution (HBSS) (Lonza, Walkerville, MD) containing 1.6 mM CaCl2 at a concentration of 5 × 10^5 cells/mL. Cells were pre-incubated with each compound dissolved in DMSO at the indicated concentration for 5 min at 37 °C. Cells were then stimulated for 15 min at 37 °C with the addition of 10 µM calcium ionophore A23187 (Sigma-Aldrich, Oakville, ON, Canada) and 10 µM arachidonic acid (Cayman Chemical, Ann Arbor, MI). Stimulation was stopped and processed for RP-HPLC analysis as described previously.

[2] = Free radical scavenging activity assay (DPPH); conditions: DPPH stable radical, 30 min, absorbance 517 nm; read-out: Free radical scavenging activity IC50 (µM) [SEM]
Procedure: A mechanism by which 5-LO activity can be inhibited is through reductive inhibition of the ferric non-heme iron of the enzyme. Interactions with stable free radicals provides an evaluation of the reducing ability of the test compounds. Radical scavenging activities of compounds tested in stimulated PMNL were assayed using 2,2-Diphenyl-1-picrylhydrazyl (DPPH) as a stable radical and are expressed as IC50 concentrations in Table 1.
The free radical scavenging activity of test compounds was measured as previously described using 2,2-diphenyl-1-picrylhydrazyl (DPPH) as a stable radical with slight modifications. DPPH (200 µL) in ethanol (250 µM) was mixed with 200 µL of the test compounds (1, 5, 10, 25, 50, 75, and 100 µg/mL). Each mixture was then shaken vigorously and held in the dark for 30 min at room temperature. The absorbance of DPPH at 517 nm was then measured. The radical scavenging activity was expressed in terms of % inhibition of DPPH absorbance:% Inhibition = (A control − A test)/A control) × 100 where A control is the absorbance of the control (DPPH solution without test compounds) and A test is the absorbance of the test sample (DPPH solution plus compounds). Ascorbic acid was used as a positive control. Data were expressed as mean ± SEM of three independent experiments, each performed in triplicate. IC50 values were calculated from a sigmoidal concentration-response curve-fitting model with a variable slope on GraphPad Prism software.

5-LO [3] = target: T1, 5-LO; assay: 5-LO products biosynthesis assay in human PMNL cells; type: cell-based; set-up: 5-LO is highly expressed in PMNL; endogenous in cells; host or cells: human PMNL from peripheral blood of healthy volunteers; conditions: for Inhibition of the biosynthesis of 5-LO products in human PMNL cells: compounds at 1 µM, result in words, compared with zileuton (1), SAPE (2) or controls, thapsigargin stimulation
Excerpt: To further probe the inhibitory activity of compounds that approached the inhibitory activity of zileuton (1) and SAPE (2), compounds were selected for further screening in PMNL (Figure 6). 5-LO is highly expressed in PMNL and these cells are important physiological producers of LTB4 [17]. […] The presence of the hydroxyl group in position 4 and the methoxy groups in positions 3 and 5 seems to be an ideal combination for inhibition of 5-LO (Figure 6). These structural changes may influence the availability, cell permeation, or even the stability of inhibitors in PMNL versus HEK293 cells. […] Human PMNL were prepared from peripheral blood of healthy consenting volunteers as described. Human PMNL are an important source of 5-LO metabolites and are relevant primary inflammatory cells for the evaluation of the best compounds identified during the screening process. PMNL were suspended in HBSS containing 1.6 mM CaCl2 (10^7 cells/mL) and pre-incubated with compounds dissolved in DMSO for 5 min at 37 °C in the presence of 0.4 U/mL of adenosine deaminase (Sigma-Aldrich, Oakville, On, Canada). Cells were then stimulated for 15 min at 37 °C with 1 μM thapsigargin (Sigma-Aldrich). Reactions were stopped by the addition of 0.5 mL of cold MeOH:CH3CN (1:1) and 50 ng of PGB2 as internal standard and samples were stored at -20 °C until processing for RP-HPLC analysis as indicated above.

melting point [°C] | Inhibition of the biosynthesis of 5-LO products in stimulated HEK293 cells (5-LO [1]) | IC50 [2] [µM] | pIC50 (5-LO [3]; 95% confidence interval: 0.25–0.53 μM, read-out: IC50 for the inhibition of 5-LO product biosynthesis in PMNL) | Structure (SMILES) | Inhibition of the biosynthesis of 5-LO products in human PMNL cells (5-LO [3])
 | less active than compound 28 |  |  | COc1cc(O)cc(OC)c1/C=C/C(=O)c1cc2ccccc2s1 [Compound 30] | 
130 to 132 | inactive |  |  | NC(=O)N(O)C(=O)/C=C/c1ccccc1 [Compound 33, 1-Hydroxy-1-((E)-3-phenylacryloyl)urea] | 
170 to 172 | inactive |  |  | COc1ccc(/C=C/C(=O)N(O)C(N)=O)cc1O [Compound 34, 1-Hydroxy-1-((E)-3-(3-hydroxy-4-methoxyphenyl)acryloyl)urea] | 
 | inactive |  |  | COc1cc(/C=C/C(=O)N(O)C(N)=O)ccc1O [Compound 35] | 
 | inactive |  |  | COc1ccc(/C=C/C(=O)N(O)C(N)=O)cc1OC [Compound 36] | 
 | inactive | 13.3 |  | COc1cc(/C=C/C(=O)N(O)C(N)=O)cc(OC)c1O [Compound 37] | inactivity; also recorded: inactive
127 to 129 | inactive |  |  | NC(=O)N(O)C(=O)c1ccccc1 [Compound 38, 1-Hydroxy-1-(benzoyl)urea] | 
133 to 135 | inactive |  |  | NC(=O)N(O)C(=O)Cc1ccccc1 [Compound 39, 1-Hydroxy-1-(2-phenylacetyl)urea] | 
 | inactive |  |  | NC(=O)N(O)C(=O)CCc1ccccc1 [Compound 40] | 
 |  | 25.4 |  | COc1cc(/C=C/C(=O)OCCc2ccccc2)cc(OC)c1O [SAPE (2), sinapic acid phenethyl ester, reference compound] | 
 |  | 21.8 |  | O=C1O[C@H]([C@@H](O)CO)C(O)=C1O [Vitamin C, Ascorbic acid, reference compound] | 
 |  | > 100 |  | CC(c1cc2ccccc2s1)N(O)C(N)=O (stereo not shown) [Zileuton (1), zileuton] | 

Continued, compound first:

Structure (SMILES) | melting point [°C] | Inhibition of the biosynthesis of 5-LO products in stimulated HEK293 cells (5-LO [1]) | IC50 [2] [µM] | pIC50 (5-LO [3]; 95% confidence interval: 0.25–0.53 μM, read-out: IC50 for the inhibition of 5-LO product biosynthesis in PMNL) | Inhibition of the biosynthesis of 5-LO products in human PMNL cells (5-LO [3])
O=C(OCCc1ccccc1)c1cc2ccccc2s1 [Compound 5, Phenethyl 1-benzothiophene-2-carboxylate] | 61 to 62 |  |  |  | 
O=C(/C=C/c1ccccc1)c1cc2ccccc2s1 [Compound 11, (E)-1-(1-Benzothiophen-2-yl)-3-phenyl-2-propen-1-one] | 118 to 120 | less active than SAPE (2); also recorded: non-significantly different than Zileuton (1) |  |  | 
O=C(/C=C/c1ccccc1O)c1cc2ccccc2s1 [Compound 14, (E)-1-(1-Benzothiophen-2-yl)-3-(o-hydroxyphenyl)-2-propen-1-one] | 178 to 180 | non-significantly different than Zileuton (1) | 31.8 |  | neither compound showed significant inhibition compared to controls
O=C(/C=C/c1ccc(O)cc1)c1cc2ccccc2s1 [Compound 16] |  | non-significantly different than Zileuton (1) | 68.9 |  | neither compound showed significant inhibition compared to controls
COc1ccc(/C=C/C(=O)c2cc3ccccc3s2)cc1O [Compound 17] |  |  | 64.7 |  | less active than zileuton (1) and SAPE (2)
COc1cc(/C=C/C(=O)c2cc3ccccc3s2)ccc1O [Compound 18] |  | not-significantly different than zileuton (1) | 68.8 |  | less active than zileuton (1) and SAPE (2)
COc1cc(/C=C/C(=O)c2cc3ccccc3s2)cc(OC)c1 [Compound 20] |  | not-significantly different than zileuton (1) |  |  | 
COc1cc(/C=C/C(=O)c2cc3ccccc3s2)cc(OC)c1OC [Compound 26] |  | inactive |  |  | 
COc1cc(OC)c(/C=C/C(=O)c2cc3ccccc3s2)c(OC)c1 [Compound 27] |  | equipotent to Zileuton (1) | 6.9 |  | complete loss of the 5-LO inhibition
COc1cc(/C=C/C(=O)c2cc3ccccc3s2)cc(OC)c1O [Compound 28] |  | equipotent to zileuton (1); also recorded: non-significantly different than zileuton (1) and SAPE (2) | 48.9 | 6.43 | three times as active as zileuton (1); also recorded: exceeding zileuton’s (1) inhibitory capacity in PMNL by more than three times
Cc1cc(/C=C/C(=O)c2cc3ccccc3s2)cc(C)c1O [Compound 29] |  | does not seem to be favorable for the inhibition of 5-LO products |  |  | 
COc1cc(/C=C/C(=O)c2cc3ccccc3s2)cc(O)c1OC [Compound 31] |  | inactive; also recorded: less active than compound 28 | 6.6 |  | total loss of activity; also recorded: inactive
